The values that follow come from ChEMBL document CHEMBL1146578, “10-Methoxydihydrofuscin, fuscinarin, and fuscin, novel antagonists of the human CCR5 receptor from Oidiodendron griseum” (J Nat Prod, 2003).

SMILES strings stand for the structures.

The assay deals with C-C chemokine receptor type 5 (Homo sapiens, UniProt P51681). The assay is described as follows: Displacement of [125I]human-MIP1-alpha from human CCR5 receptor expressed in CHO cells by SPA. The class given is cell-based. For orientation: In a radioligand displacement assay an active substance lowers the binding of a labelled ligand.
C-C chemokine receptor type 5, sequence (P51681 whole entry): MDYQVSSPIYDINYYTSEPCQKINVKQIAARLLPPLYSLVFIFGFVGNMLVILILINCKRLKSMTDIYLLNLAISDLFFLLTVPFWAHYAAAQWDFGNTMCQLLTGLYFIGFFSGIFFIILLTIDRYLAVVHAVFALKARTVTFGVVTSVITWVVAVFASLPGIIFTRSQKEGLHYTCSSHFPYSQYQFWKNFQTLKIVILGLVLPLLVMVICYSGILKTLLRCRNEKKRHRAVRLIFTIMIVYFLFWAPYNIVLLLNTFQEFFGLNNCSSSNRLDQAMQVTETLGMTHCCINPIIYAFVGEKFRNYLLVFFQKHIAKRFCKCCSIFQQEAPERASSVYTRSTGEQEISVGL
Broadly, the IC50 is the concentration that inhibits the measured activity by half. A high value points to weaker potency. With `COC1C(=O)OC(C)c2c(O)c(O)c3c(c21)CCC(C)(C)O3` (stereo not drawn), the IC50 was found to be 154 µM.
The compound `CC1OC(=O)C=C2C3=C(OC(C)(C)CC3)C(=O)C(O)=C21` (stereo not drawn) [FUSCIN] yielded an IC50 of 21 µM.
Compound `CC1OC(=O)c2c3c(c(O)c(O)c21)OC(C)(C)CC3` (stereo not drawn) [FUSCINARIN] came in with an IC50 of 80 µM.
